Assay results taken from the NIST ThermoML archive (doi:10.1016/j.tca.2014.09.007).
± gives the expanded uncertainty stated by the source.

Assays:
[1] = DTA
[2] = Molar enthalpy of transition or fusion; settings: Crystal; DSC

- Normal melting temperature ([1]; Crystal): 125.90 ± 0.5 °C
- Glass transition temperature ([1]; Glass): 25.00 ± 4 °C
- Molar enthalpy of transition or fusion [2]: 7.65 ± 0.222 kcal/mol
SMILES: CC(C)(Sc1cc(C(C)(C)C)c(O)c(C(C)(C)C)c1)Sc1cc(C(C)(C)C)c(O)c(C(C)(C)C)c1 [probucol]
